Experimental data taken from PubChem BioAssay (NCI).
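Results reflect a 48-hour exposure of cells in 96-well plates to compound at five concentrations. TGI: concentration producing complete growth inhibition.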

How the values were obtained:
Experiment in all cases: NCI tumour cell line growth inhibition, 48 h
P388/ADR leukemia = test system: P388/ADR leukemia
DLD-1 colon = test system: DLD-1 colon
DMS 273 small cell lung = test system: DMS 273 small cell lung
SN12K1 renal = test system: SN12K1 renal
DMS 114 small cell lung = test system: DMS 114 small cell lung
XF 498 CNS = test system: XF 498 CNS
P388 leukemia = test system: P388 leukemia
LXFL 529 NSCLC = test system: LXFL 529 NSCLC
HOP-18 NSCLC = test system: HOP-18 NSCLC
RXF-631 renal = test system: RXF-631 renal
MDA-N = test system: MDA-N

`CCCCCCCC/C=C\CCCCCCCC(=O)O` showed a TGI (P388/ADR leukemia) of 200 µM, a TGI (DLD-1 colon) of 221 µM and a TGI (DMS 273 small cell lung) of 210 µM. It also gave a TGI (SN12K1 renal) of 175 µM, a TGI (DMS 114 small cell lung) of 194 µM and a TGI (XF 498 CNS) of 13.6 µM. It also gave a TGI (P388 leukemia) of 274 µM.
In the case of `CCNc1nnc(-c2nsc3ccccc23)s1`, the TGI (LXFL 529 NSCLC) is reported as greater than 100 µM, the TGI (DMS 273 small cell lung) is reported as greater than 100 µM and the TGI (HOP-18 NSCLC) is reported as 91.6 µM.
In the case of `O=C1C=CC2=[N+]([O-])C(c3ccccc3)(c3ccccc3)C(=Nc3ccccc3)C2=C1`, the TGI (LXFL 529 NSCLC) is reported as 3.36 µM, the TGI (DLD-1 colon) is reported as 3.14 µM and the TGI (DMS 114 small cell lung) is reported as 3.32 µM. The TGI (RXF-631 renal) was 11.1 µM, the TGI (XF 498 CNS) was 2.71 µM and the TGI (HOP-18 NSCLC) was 7.52 µM.
For `Cc1ccc([N+](=O)[O-])cc1S(=O)(=O)Nc1ccc(C2=NNC(c3ccccc3O)C2)cc1` (stereo not drawn), the TGI (MDA-N) was 93.5 µM.
Molecule `CC(=O)Oc1ccc2c(c1)oc1c3ccc(OC(C)=O)cc3n(C)c(=O)c21` has a TGI (MDA-N) greater than 100 µM.
